Test results reported in ChEMBL document CHEMBL5126651, “ALK Inhibitors for Treating Cancer, Blood, and Kidney Diseases” (ACS Med Chem Lett, 2022).

Legend:
[1] = target: T1, TGF-beta receptor type-1 (Homo sapiens, UniProt P36897); experiment: Displacement of Alexa Fluor labeled tracer 178 from ALK5 (unknown origin) using anti-GST antibody incubated for 60 mins by TR-FRET based LanthaScreen Eu-Kinase binding assay
T1 sequence (P36897 whole entry): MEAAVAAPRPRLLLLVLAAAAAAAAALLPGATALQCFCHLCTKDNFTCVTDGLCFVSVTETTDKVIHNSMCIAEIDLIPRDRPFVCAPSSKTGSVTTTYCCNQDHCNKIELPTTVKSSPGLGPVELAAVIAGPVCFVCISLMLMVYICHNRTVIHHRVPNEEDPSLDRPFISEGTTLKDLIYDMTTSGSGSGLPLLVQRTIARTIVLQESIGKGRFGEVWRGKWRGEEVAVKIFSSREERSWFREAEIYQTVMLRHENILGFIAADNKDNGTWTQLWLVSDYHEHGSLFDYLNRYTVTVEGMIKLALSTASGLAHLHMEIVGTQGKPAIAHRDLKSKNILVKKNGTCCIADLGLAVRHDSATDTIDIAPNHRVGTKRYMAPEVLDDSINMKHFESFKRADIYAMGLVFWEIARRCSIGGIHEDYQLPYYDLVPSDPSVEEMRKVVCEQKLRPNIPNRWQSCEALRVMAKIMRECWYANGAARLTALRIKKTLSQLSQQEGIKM

[2] = organism: Homo sapiens; experiment: Selectivity ratio of IC50 for ALK2 (unknown origin) to IC50 for ALK5 (unknown origin)
[3] = target: T2, TGF-beta receptor type-1 (Homo sapiens) (UniProt P36897); experiment: Inhibition of TGF-beta receptor 1 in human RD cells transfected with Smad reporter plasmid by reporter gene based One-Glo luciferase assay; assay type: cell-based
T2 sequence (whole entry): T1 sequence (P36897 whole entry)

SMILES	IC50 [1] [nM]	Ratio IC50 [2]	INH [3] [nM]
Cc1cccc2c(Nc3ccnc(Nc4cccc(N5CCOCC5)c4)n3)cnnc12	≤ 10	10	< 100
Cc1cccc2c(Nc3ccnc(Nc4cc(CN5CCNCC5)ccc4F)n3)cnnc12	≤ 10	10	< 1000
Cc1cccc2c(Nc3ccnc(Nc4ccc(N5CCNCC5)c(F)c4)n3)cnnc12	≤ 10	10	< 100
Cc1cccc2c(Nc3ccnc(Nc4ccc(N5CCOCC5)c(Cl)c4)n3)cnnc12	≤ 10	10	< 100
Cc1cccc2c(Nc3ccnc(Nc4ccc(CC5CCNCC5)cc4)n3)cnnc12	< 1000	10	< 1000
Cc1cccc2c(Nc3ccnc(Nc4cc(F)cc(CN5CCNCC5)c4)n3)cnnc12	≤ 10	> 10	< 100
Cc1cccc2c(Nc3nc(Nc4cc(CN5CCNCC5)ccc4F)ncc3F)cnnc12	10	> 10	< 1000

Second part, the compound after the results:

IC50 [1] [nM]	Ratio IC50 [2]	INH [3] [nM]	SMILES
≤ 10	10	< 100	Cc1cc(F)cc2c(Nc3ccnc(Nc4ccc(N5CCN(C)CC5)cc4)n3)cnnc12
≤ 10	10	< 100	Cc1cccc2c(Nc3ccnc(Nc4ccc(N5CCOCC5)cc4)n3)cnnc12
≤ 10	> 10	< 100	Cc1cccc2c(Nc3ccnc(Nc4cccc(CN5CCN(C)CC5)c4)n3)cnnc12
≤ 10	10	< 100	Cc1c(F)ccc2c(Nc3ccnc(Nc4ccc(N5CCN(C)CC5)cc4)n3)cnnc12
≤ 10	10	< 100	Cc1c(F)ccc2c(Nc3ccnc(Nc4ccc(N5CCNCC5)cc4)n3)cnnc12
